Experimental data reported in patent US10618902B2, “Substituted pyrido[2,3-d]pyrimidines as inhibitors of protein kinases” (Celgene CAR LLC, priority 2013, dated 2020).
“Also recorded” adds a separate entry of the source. Where two headings read alike, the source gives them in different places.

Tests used:
[1] = target: FGFR4-WT (Homo sapiens (Human), UniProt P22455); assay: Omnia assay for potency against FGFR4 enzyme; assay type: biochemical; details: method a: FGFR4-WT (Invitrogen) 10 nM, ATP 300 uM, Y10-Sox 10 uM
Chain of FGFR4-WT (P22455 22-802): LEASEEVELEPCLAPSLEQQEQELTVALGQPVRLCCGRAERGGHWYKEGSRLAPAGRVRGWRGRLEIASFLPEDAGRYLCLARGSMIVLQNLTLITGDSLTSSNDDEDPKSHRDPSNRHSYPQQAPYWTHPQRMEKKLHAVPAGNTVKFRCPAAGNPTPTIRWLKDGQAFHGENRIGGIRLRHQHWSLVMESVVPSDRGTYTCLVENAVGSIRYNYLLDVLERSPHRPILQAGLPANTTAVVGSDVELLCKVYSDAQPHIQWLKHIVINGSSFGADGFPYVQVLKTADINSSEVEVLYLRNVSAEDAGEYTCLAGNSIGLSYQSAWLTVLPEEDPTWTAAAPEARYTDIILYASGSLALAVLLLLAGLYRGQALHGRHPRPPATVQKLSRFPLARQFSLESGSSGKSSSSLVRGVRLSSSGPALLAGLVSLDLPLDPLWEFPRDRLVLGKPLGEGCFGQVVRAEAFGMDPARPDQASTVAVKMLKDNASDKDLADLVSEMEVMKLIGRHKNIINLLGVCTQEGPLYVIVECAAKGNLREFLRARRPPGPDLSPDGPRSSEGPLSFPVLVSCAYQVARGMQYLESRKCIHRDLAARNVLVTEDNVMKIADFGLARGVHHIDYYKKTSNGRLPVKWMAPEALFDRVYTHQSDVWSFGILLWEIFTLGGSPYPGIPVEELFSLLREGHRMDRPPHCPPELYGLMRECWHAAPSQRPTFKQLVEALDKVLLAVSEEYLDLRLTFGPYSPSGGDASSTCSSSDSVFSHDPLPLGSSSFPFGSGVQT
Description: A 10× stock solution of FGFR4-WT (PR4380C or P3054), (from Invitrogen, Carlsbad, Calif.) corresponding to method a in Table 10, was prepared as described below. Alternatively, a 10× stock solution of FGFR4-WT (F01-11G), (SignalChem, Richmond, BC) corresponding to method b in Table 10, was prepared as described below. A solution of 1.4×ATP (AS001A) and 5× Tyr-Sox conjugated peptide substrate (KNZ3101) were prepared in 1× kinase reaction buffer consisting of 20 mM Tris, pH 7.5, 5 mM MgCl2, 1 mM EGTA, 5 mM […], 5% glycerol (10× stock, KB002A) and 0.2 mM DTT (DS001A). […] The serially diluted compounds were prepared on a Tecan EVO100. A second addition of 10 μl of Tyr-Sox FGFR4 substrate was added to each well and the kinase reactions were started with the addition of 35 μL of 1.4×ATP. The reactions were monitored every 71 seconds for 240 minutes at λex360/λem485 in a Synergy plate reader from BioTek (Winooski, Vt.). […] Methods:
a) [FGFR4-WT]=10 nM, [ATP]=300 uM, [Y10-Sox]=10 uM (ATP KMapp−300 uM),

[2] = system: Huh7 cells; assay: Cell proliferation, Huh7 (CellTiter Glo); assay type: cell-based
Description: (§1) The growth inhibition (GI50) values were determined by Graph Pad Prism.

[3] = target: pFGFR4 (Huh7 cells) (Homo sapiens (Human), UniProt P22455); assay: FGFR4 signaling (pFGFR4) in Huh7 cells (MSD); assay type: cell-based; details: read-out: Signaling EC50 (nM) pFGFR4 (Huh)
Chain of pFGFR4 (Huh7 cells) (P22455 22-802): as above

[4] = system: MDA-MB-453 cells; assay: Cell proliferation, MDA-MB-453 (CellTiter Glo); assay type: cell-based; details: 96 hr
Description: as §1

[5] = target: pFGFR4 in MDA-MB-453 cells (Homo sapiens (Human), UniProt P22455, Y367C); assay: Washout experiment (duration of pFGFR4 inhibition); assay type: cell-based; details: 1000-2000 nM for 1 hr, washed, up to 24 hr
Chain of pFGFR4 in MDA-MB-453 cells (P22455 22-802 Y367C): as the sequence (P22455 22-802) above, with Y346C counted along it
Description: The cells were allowed to settle down for 4 hrs and were then maintained in low-serum (0.1% FBS) media overnight.
The following morning, the media was removed and the cells were treated with 1000-2000 nM of test compound in low-serum media for 1 hr. The cells were washed free of test compound (3×) with PBS (Invitrogen). One set of cells was immediately lysed as indicated above as the 0 hr time point. The remaining cells were incubated with the appropriate complete growth media (10-20% FBS) for 1, 2, 4, 8, 16 (in certain circumstances) and 24 hr. DMSO (0.5%) controls were collected at all time points.

[6] = 120 hr, read-out: Cell Proliferation GI50 (nM) HUH

SMILES | IC50 [1] [nM] | GI50 ([2]; Homo sapiens, Huh-7, 120 hr) [nM] | EC50 [3] [nM] | GI50 ([4]; Homo sapiens) [nM] | GI50 [2, 6] [nM] | GI50 [4] [nM] | duration of action against pFGFR4 signalling after washout [5]
C=CC(=O)Nc1cc(N2CCN(CC)CC2)ccc1Nc1ncc2cc(-c3c(Cl)c(OC)cc(OC)c3Cl)c(=O)n(C)c2n1 [Compound I-269] | < 100 | 101 to 500 | < 100 | < 100 |  |  | 
C=CC(=O)NC1CCCCC1Nc1ncc2c(n1)N(Cc1cscn1)C(=O)N(c1c(Cl)c(OC)cc(OC)c1Cl)C2 (racemic) [Compound I-69] |  |  |  |  |  |  | prolonged duration of action; also recorded: prolonged inhibition of autophosphorylation of FGFR4
C=CC(=O)Nc1ccccc1Nc1ncc2c(n1)N(Cc1cccc(NC(=O)CC)c1)C(=O)N(c1c(Cl)c(OC)cc(OC)c1Cl)C2 [Compound I-1] |  |  |  |  |  |  | has PDA; also recorded: prolonged duration of action
CCC(=O)Nc1cccc(CN2C(=O)N(c3c(Cl)c(OC)cc(OC)c3Cl)Cc3cnc(Nc4ccccc4NC(=O)CC)nc32)c1 [Compound I-234] |  |  |  |  |  |  | does not have PDA; also recorded: does not show prolonged duration of action

Continued, in another order:

IC50 [1] [nM] | GI50 ([2]; Homo sapiens, Huh-7, 120 hr) [nM] | EC50 [3] [nM] | GI50 ([4]; Homo sapiens) [nM] | GI50 [2, 6] [nM] | GI50 [4] [nM] | SMILES | duration of action against pFGFR4 signalling after washout [5]
< 100 | 101 to 500 | < 100 | < 100 |  |  | C=CC(=O)Nc1cc(-c2nnnn2C)ccc1Nc1ncc2cc(-c3c(Cl)c(OC)cc(OC)c3Cl)c(=O)n(C)c2n1 [Compound I-276] | 
< 100 |  | < 100 |  | < 100 | < 100 | C=CC(=O)Nc1ccc(F)c(F)c1Nc1ncc2cc(-c3c(Cl)c(OC)cc(OC)c3Cl)c(=O)n(C)c2n1 [Compound I-285] | 
< 100 |  | < 100 |  | 501 to 999 | < 100 | C=CC(=O)Nc1ccccc1Nc1ncc2cc(-c3c(Cl)c(OC)cc(OC(F)F)c3Cl)c(=O)n(C)c2n1 [Compound I-289] | 
 | < 100 |  | 101 to 500 |  |  | C=CC(=O)N[C@H]1COC[C@H]1Nc1ncc2cc(-c3c(F)c(OC)cc(OC)c3F)c(=O)n(C)c2n1 [Compound I-281] | 
 | < 100 |  | < 100 |  |  | C=CC(=O)N[C@H]1COC[C@H]1Nc1ncc2cc(-c3c(F)c(OC)cc(OC)c3Cl)c(=O)n(C)c2n1 [Compound I-279] | 
